Source: patent US5459156A, “Imidazolyl-substituted phenylacetic acid prolinamides” (Bayer Aktiengesellschaft, priority 1993, dated 1995)

How the values were obtained:
smooth muscle cells = assay: Inhibition of the proliferation of smooth muscle cells (3H-thymidine incorporation); format: cell-based, rats; settings: rat aorta smooth muscle cells; inhibition of thymidine incorporation produced by 10% FCS; Table B
Protocol: Investigation of the Inhibition of the Proliferation of Smooth Muscle Cells by the Compounds According to the Invention
To determine the antiprofilerative action of the compounds, smooth muscle cells are used which are obtained from aortas of rats by the media explant technique [R. Ross, J. Cell. Biol. 50, 172, 1971]. The cells are inoculated in suitable culture dishes, as a rule 96-hole plates, and cultured in 5% CO2 at 37° C. for 2-3 days in medium 199 containing 7.5% FCS and 7.5% NCS, 2 mM L-glutamine and 15 mM HEPES, pH 7.4. The cells are then synchronized by withdrawal of serum for 2-3 days and then stimulated into growth with serum or other factors. Test compounds are simultaneously added. After 16-20 hours, 1 μCi ^3 H-thymidine is added and after a further 4 hours the incorporation of this substance into the TCA-precipitatable DNA of the cells is determined. To determine the IC50 values, the active compound concentration is determined which, on sequential dilution of the active compound, causes semi-maximal inhibition of the thymidine incorporation produced by 10% FCS.

Angiotensin II Receptor = target: T1, Angiotensin II Receptor (Bos taurus, UniProt P25104); assay: Inhibition of the specific binding of radioactive angiotensin II to the angiotensin II receptor in membrane fractions of the adrenal gland cortex (bovine); settings: bovine adrenal gland cortex membranes; 3H-angiotensin II (3-5 nM); 60 min, room temperature; Table A
T1 construct: partially purified membrane fractions of bovine AGC using radioactive angiotensin II; from tissue; host or cells: bovine adrenal gland cortex, partially purified membrane fractions
T1 sequence (P25104 1-359): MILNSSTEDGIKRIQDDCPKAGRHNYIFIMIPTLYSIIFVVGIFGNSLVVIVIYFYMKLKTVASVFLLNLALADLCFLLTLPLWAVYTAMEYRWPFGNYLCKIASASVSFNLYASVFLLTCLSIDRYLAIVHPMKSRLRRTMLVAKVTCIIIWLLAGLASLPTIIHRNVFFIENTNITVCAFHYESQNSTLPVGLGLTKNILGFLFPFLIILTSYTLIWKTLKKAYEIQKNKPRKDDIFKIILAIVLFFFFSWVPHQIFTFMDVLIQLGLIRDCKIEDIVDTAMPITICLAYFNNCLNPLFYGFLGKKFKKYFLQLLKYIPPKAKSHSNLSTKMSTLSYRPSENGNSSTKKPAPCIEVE
Source text: Interaction of the Compounds According to the Invention with the Angiotensin II Receptor in Membrane Fractions of the Adrenal Gland Cortex (Bovine)
Bovine adrenal gland cortices (AGC), which have been freshly removed and carefully freed from gland medulla, are comminuted in sucrose solution (0.32M) with the aid of an Ultra-Turrax (Janke & Kunkel, Staufen i.B.) to give a coarse membrane homogenate and partially purified in two centrifugation steps to give membrane fractions. The receptor binding investigations are carried out on partially purified membrane fractions of bovine AGC using radioactive angiotensin II in an assay volume of 0.25 ml, which specifically contains the partially purified membranes (50-80 μg), ^3 H-angiotensin II (3-5 nM), test buffer solution (50 mM Tris, pH 7.2), 5 mM MgCl2 and the substances to be investigated. After an incubation time of 60 min at room temperature, the unbound radioactivity of the samples is separated by means of moistened glass fibre filters (Whatman GF/C) and the bound radioactivity is measured spectrophotometrically in a scintillation cocktail after washing the protein with ice-cold buffer solution (50 mM Tris/HCl, pH 7.4, 5% PEG 6000). […]

Row | Structure (SMILES) | IC50 (smooth muscle cells) | IC50 (Angiotensin II Receptor)
1 | CCCCc1nc(Cl)c(CO)n1Cc1ccc(C(C(=O)N2CCC[C@H]2C(=O)OC(C)(C)C)C2CCCC2)cc1 (single isomer, unassigned) [Example 14] | 450 nM | 
2 | CCCCc1nc(Cl)c(C(=O)O)n1Cc1ccc(C(C(=O)N2CCC[C@H]2C(N)=O)C2CCCC2)cc1 (stereo partly drawn) [Example 7, 2-[4-(2-Butyl-4-chloro-5-carboxy-imidazol-1-yl-methyl)-phenyl]-2-cyclopentylacetic acid (L-prolinamido) amide] |  | 580 nM
3 | CCCCc1nc(Cl)c(CO)n1Cc1ccc(C(C(=O)N2CCC[C@H]2C(=O)N[C@H](CO)c2ccccc2)C2CCCC2)cc1 (stereo partly drawn) [Example 9, 2-[4-(2-Butyl-4-chloro-5-hydroxymethyl-imidazol-1-yl-methyl)phenyl]-2-cyclopentylacetic acid (L-prolinephenylglycinolamido) amide] | 860 nM | 
4 | CCCCc1nc(Cl)c(C(=O)O)n1Cc1ccc(C(C(=O)N2CCC[C@H]2C(=O)OCc2ccccc2)C2CCCC2)cc1 (stereo partly shown) [Example 12] |  | 290 nM
